Like-named read-outs stand apart in the source and are kept apart here.

Common to all, as to experiment: KINOMEscan competitive binding
The target in assay [1] is T1, MERTK (Homo sapiens, UniProt Q12866).
T1 construct: purchased DiscoverX (KINOMEscan)
T1 sequence (Q12866 21-999): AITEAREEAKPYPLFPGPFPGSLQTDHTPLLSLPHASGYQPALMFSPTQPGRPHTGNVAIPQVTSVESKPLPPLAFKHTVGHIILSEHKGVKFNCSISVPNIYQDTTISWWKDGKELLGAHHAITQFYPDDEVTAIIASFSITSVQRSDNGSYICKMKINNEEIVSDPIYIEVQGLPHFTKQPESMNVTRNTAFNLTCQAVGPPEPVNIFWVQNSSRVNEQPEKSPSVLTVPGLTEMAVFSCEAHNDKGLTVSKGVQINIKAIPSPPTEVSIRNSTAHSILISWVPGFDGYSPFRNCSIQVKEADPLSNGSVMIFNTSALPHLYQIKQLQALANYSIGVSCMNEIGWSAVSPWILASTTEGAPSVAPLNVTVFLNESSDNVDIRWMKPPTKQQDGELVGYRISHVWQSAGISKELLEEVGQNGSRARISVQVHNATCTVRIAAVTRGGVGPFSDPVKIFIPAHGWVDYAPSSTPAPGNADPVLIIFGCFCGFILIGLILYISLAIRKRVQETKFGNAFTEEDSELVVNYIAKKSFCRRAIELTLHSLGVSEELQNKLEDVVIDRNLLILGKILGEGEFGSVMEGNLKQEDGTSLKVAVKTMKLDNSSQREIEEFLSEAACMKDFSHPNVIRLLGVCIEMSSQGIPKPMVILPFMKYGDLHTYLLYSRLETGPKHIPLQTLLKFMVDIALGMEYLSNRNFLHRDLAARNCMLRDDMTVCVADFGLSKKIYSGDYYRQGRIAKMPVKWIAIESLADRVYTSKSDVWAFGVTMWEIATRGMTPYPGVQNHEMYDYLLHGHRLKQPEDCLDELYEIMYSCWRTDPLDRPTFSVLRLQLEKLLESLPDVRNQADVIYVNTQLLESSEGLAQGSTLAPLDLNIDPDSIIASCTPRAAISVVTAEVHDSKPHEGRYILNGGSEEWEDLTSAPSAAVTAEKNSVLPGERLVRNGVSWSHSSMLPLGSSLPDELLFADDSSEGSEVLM
From the text:
(§1) The kinases were expressed as fusions to T7 bacteriophage. This is a sensitive, competitive binding assay where test compounds were used to displace immobilized ATP-site binding probe ligands from kinases of interest. The amount of kinase that remained bound to the immobilized probe ligands on the solid support was quantified. Percentage inhibition data were was plotted on kinome trees using the web-based tool KinMap (http://www.kinhub.org/kinmap) ([60]).

Assay [2] deals with T2, CSNK1G1 (Homo sapiens, UniProt Q9HCP0).
T2 construct: purchased DiscoverX (KINOMEscan)
Source text: as §1

Assay [3] deals with T3, CSNK1E (Homo sapiens, UniProt P49674).
T3 construct: purchased DiscoverX (KINOMEscan)
Source text: as §1

The target of assay [4] is T4, LKB1 (Homo sapiens, UniProt Q15831).
T4 construct: purchased DiscoverX (KINOMEscan)
T4 sequence (Q15831 1-433): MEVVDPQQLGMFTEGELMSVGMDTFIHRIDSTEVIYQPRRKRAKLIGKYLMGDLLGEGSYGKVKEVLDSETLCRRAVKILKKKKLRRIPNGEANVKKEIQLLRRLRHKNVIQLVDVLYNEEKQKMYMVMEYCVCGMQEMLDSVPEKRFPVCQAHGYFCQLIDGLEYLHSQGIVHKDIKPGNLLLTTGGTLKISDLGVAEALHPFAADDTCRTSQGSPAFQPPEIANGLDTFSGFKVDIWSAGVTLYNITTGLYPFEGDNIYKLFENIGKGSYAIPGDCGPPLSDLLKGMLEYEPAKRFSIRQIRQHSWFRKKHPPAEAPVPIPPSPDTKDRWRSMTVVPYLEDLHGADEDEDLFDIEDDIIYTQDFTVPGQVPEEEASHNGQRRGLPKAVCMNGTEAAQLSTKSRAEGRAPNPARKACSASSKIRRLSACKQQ
Source text: as §1

The target in assay [5] is T5, TTK (Homo sapiens, UniProt P33981).
T5 construct: purchased DiscoverX (KINOMEscan)
T5 sequence (P33981 1-857): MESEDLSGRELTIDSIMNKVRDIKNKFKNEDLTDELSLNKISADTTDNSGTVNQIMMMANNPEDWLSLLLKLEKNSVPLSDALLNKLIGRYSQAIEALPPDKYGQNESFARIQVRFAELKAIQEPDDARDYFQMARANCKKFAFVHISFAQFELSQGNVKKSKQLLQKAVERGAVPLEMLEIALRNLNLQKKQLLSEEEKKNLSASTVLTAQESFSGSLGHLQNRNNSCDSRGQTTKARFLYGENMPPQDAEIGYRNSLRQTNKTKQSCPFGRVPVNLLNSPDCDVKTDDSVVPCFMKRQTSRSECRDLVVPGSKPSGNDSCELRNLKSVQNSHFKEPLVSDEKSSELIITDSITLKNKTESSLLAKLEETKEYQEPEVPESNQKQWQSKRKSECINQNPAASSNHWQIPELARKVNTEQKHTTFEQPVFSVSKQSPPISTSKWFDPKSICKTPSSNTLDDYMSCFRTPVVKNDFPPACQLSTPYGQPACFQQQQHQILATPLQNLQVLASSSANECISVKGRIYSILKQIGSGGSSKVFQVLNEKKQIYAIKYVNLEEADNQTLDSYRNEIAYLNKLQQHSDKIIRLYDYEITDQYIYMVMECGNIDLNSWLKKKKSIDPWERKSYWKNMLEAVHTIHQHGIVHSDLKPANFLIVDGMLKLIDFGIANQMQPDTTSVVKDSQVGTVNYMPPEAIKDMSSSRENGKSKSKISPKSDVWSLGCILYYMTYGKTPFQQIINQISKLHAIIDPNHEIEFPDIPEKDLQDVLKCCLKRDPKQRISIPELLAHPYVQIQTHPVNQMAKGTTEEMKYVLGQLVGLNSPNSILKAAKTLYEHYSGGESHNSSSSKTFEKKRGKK
Source text: as §1

Setting [6] is: 10 µM, n=1, kinase MERTK, read-out: Percent inhibition MERTK.
Where [7] appears, read: 10 µM, n=1, kinase CSNK1G1, read-out: Percent inhibition CSNK1G1.
[8] abbreviates: 10 µM, n=1, kinase CSNK1E, read-out: Percent inhibition CSNK1E.
Setting [9] is: 10 µM, n=1, kinase LKB1, read-out: Percent inhibition LKB1.
Where [10] appears, read: KINOMEscan, 10 µM, n=1, read-out: Percent inhibition, TTK.

T2 sequence (Q9HCP0 whole entry): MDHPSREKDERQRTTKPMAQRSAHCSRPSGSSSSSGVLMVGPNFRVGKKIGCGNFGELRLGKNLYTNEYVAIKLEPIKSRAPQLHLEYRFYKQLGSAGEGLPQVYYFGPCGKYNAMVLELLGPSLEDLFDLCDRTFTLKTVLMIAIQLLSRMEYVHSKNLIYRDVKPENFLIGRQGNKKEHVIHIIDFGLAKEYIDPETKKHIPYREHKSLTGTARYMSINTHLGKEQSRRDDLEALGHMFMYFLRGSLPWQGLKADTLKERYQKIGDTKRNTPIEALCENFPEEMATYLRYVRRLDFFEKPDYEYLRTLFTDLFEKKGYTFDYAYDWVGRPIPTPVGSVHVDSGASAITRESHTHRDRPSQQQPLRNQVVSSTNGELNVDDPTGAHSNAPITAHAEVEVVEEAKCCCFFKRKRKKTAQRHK
T3 sequence (P49674 whole entry): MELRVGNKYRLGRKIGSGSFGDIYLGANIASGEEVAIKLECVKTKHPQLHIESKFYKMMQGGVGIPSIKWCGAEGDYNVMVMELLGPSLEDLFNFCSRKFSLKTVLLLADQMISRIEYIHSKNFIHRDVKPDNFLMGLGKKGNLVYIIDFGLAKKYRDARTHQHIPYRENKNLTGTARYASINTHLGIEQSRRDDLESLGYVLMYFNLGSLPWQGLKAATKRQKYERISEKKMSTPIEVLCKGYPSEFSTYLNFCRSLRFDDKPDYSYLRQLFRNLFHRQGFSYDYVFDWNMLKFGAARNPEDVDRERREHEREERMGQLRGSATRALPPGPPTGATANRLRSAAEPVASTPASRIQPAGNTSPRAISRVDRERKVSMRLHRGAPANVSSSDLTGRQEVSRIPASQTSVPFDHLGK

The inhibition is the change of the read-out against control, counted positive when it falls. For the compound `Cc1ccc(O)cc1Nc1ccnc(Nc2cccc(C(N)=O)c2)n1` [Compound 3], the inhibition at 10 µM in assay [1] (setting [6]) worked out at 0%; in assay [2] (setting [7]), 82.5%; in assay [3] (setting [8]), 100%; in assay [4] (setting [9]), 74.3%; in assay [5] (setting [10]), 98.7%.

In the case of `Clc1ccc(Nc2ncc(-c3ccccc3)s2)cc1` [Compound 10], the inhibition at 10 µM in assay [1] (setting [6]) came out at 0%; in assay [2] (setting [7]), 0%; in assay [3] (setting [8]), 0%; in assay [4] (setting [9]), 67.6%; in assay [5] (setting [10]), 0%.

Turning to `c1ccc(COc2cccc(-c3ccnc4[nH]ccc34)c2)cc1` [Compound 9], the inhibition at 10 µM in assay [1] (10 μM, n = 1, read-out: percent inhibition MERTK) was no less than 90%; in assay [1] (setting [6]), 94.1%; in assay [2] (setting [7]), 0%; in assay [3] (setting [8]), 0%; in assay [4] (10 μM, n = 1, read-out: percent inhibition LKB1) it was no less than 99%; in assay [4] (setting [9]), 99.5%. Further, in assay [5] (setting [10]), the inhibition at 10 µM came to 0%.

With `Fc1cccc(COc2ccc(Nc3ncnc4c3CN(CCN3CCOCC3)CC4)cc2Cl)c1` [Compound 6], the inhibition at 10 µM in assay [1] (setting [6]), in assay [2] (setting [7]), in assay [3] (setting [8]), in assay [4] (setting [9]) and in assay [5] (setting [10]) was 0% in each case.

For `C[C@@H](Oc1cc(-c2cnc3ccccn23)sc1C(N)=O)c1ccccc1Cl` [Compound 8], the inhibition at 10 µM was 87.6% in assay [1] (setting [6]); 0% in assay [2] (setting [7]); 71.7% in assay [3] (setting [8]); 98.3% in assay [4] (setting [9]); 69.8% in assay [5] (setting [10]).

As to `CN1CCN(c2ccc(Nc3nccc(-c4cnn5ncccc45)n3)cc2C#N)CC1` [Compound 1], the inhibition at 10 µM in assay [1] (setting [6]) turned out to be 98.7%; in assay [2] (setting [7]), 100%; in assay [3] (setting [8]), 100%; in assay [4] (setting [9]), 100%; in assay [5] (setting [10]) it was 99.9%.

Regarding `Cc1ccc(O)cc1N(C)c1ccnc(Nc2cccc(S(N)(=O)=O)c2)n1` [Compound 4], the inhibition at 10 µM stood at 77.6% in assay [1] (setting [6]); 0% in assay [2] (setting [7]); 100% in assay [3] (setting [8]); 77.3% in assay [4] (setting [9]); 91.8% in assay [5] (setting [10]).

Consider `COc1ccc(Nc2nccc(-c3cnn4ncccc34)n2)cc1` [Compound 2], for which the inhibition at 10 µM in assay [1] (setting [6]) worked out at 65.9%; in assay [2] (setting [7]), 75.9%; in assay [3] (setting [8]) it was 100%; in assay [4] (setting [9]) it was 96.1%; in assay [5] (setting [10]), 100%.

`Nc1ncc2c(-c3ccncc3)c[nH]c2n1` [Compound 11]: the inhibition at 10 µM in assay [1] (setting [6]) is 0%; in assay [2] (10 μM, n = 1, read-out: percent inhibition CSNK1G1), no less than 99%; in assay [2] (setting [7]) it was 99.3%; in assay [3] (10 μM, n = 1, read-out: percent inhibition CSNK1E), no less than 99%; in assay [3] (setting [8]) it was 100%; in assay [4] (setting [9]), 80%. Besides, the inhibition at 10 µM in assay [5] (10 μM, n = 1, read-out: percent inhibition TTK) was no less than 99%; in assay [5] (setting [10]) it was 99.5%.

As for `COc1cc(Nc2nccc(-c3sc(N)nc3-c3cccc(NC(=O)c4c(F)cccc4F)c3)n2)cc(OC)c1OC` [Compound 7], the inhibition at 10 µM in assay [1] (setting [6]) was 99.6%; in assay [2] (setting [7]), 0%; in assay [3] (setting [8]), 99.9%; in assay [4] (setting [9]) it was 0%; in assay [5] (setting [10]) it was 99.2%.
